biological target: T1, human RXFP1 (Homo sapiens, UniProt Q9HBX9); assay: hRXFP1 HEK293 cAMP assay (HTRF); format: cell-based; settings: HEK293 cells stably expressing human RXFP1, 30 min at room temperature
T1 construct: expressed in transfected cells
T1 sequence (Q9HBX9 1-757): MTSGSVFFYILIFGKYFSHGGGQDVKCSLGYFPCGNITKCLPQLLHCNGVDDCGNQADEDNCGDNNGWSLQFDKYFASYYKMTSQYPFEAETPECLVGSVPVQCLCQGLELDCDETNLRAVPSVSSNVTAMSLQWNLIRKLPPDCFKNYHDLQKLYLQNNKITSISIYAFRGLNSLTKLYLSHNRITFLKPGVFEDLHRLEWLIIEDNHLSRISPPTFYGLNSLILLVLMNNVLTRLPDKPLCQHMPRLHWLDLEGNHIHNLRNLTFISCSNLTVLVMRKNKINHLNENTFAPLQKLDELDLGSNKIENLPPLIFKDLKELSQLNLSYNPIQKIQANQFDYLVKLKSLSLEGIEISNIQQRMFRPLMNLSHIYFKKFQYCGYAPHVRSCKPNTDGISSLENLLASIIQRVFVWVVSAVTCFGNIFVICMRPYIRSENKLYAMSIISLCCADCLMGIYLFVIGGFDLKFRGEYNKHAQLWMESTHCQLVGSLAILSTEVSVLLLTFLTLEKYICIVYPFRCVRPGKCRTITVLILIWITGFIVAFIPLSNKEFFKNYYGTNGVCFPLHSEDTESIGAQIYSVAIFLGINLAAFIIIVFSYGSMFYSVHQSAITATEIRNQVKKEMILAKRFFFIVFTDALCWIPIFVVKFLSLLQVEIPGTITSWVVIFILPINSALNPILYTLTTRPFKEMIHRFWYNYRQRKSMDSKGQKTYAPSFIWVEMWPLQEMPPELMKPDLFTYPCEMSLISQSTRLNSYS
Method in brief: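 HEK293 cells stably expressing human RXFP1 (1500 cells/well) in HBSS/20 mM HEPES/0.05% BSA/0.5 mM IBMX. Compounds were tested at 0.010 nM–50 μM final (2% DMSO) for 30 min at room temperature. cAMP was measured by HTRF and values derived by 4-parameter logistic fit.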

| EC50 [nM] | Compound |
| --- | --- |
| 95 | COc1ccc(C#CCOC(=O)Nc2ccccc2)cc1C(=O)N[C@@H]1C2CCC(/C2=C/C(F)(F)F)[C@@H]1C(=O)Nc1ccc(F)c(C(F)(F)F)c1 (stereo partly drawn) [Example 69, 3-(3-{[(2R,3S,7Z)-3-{[4-fluoro-3-(trifluoromethyl)phe-nyl]carbamoyl}-7-(2,2,2-trifluoroethylidene)bi-cyclo[2.2.1]heptan-2-yl]carbamoyl}-4-methoxyphenyl)prop-2-yn-1-yl N-phenylcarbamate] |
| 27.8 | COc1ccc(C2CC3CC(O)CC32)cc1C(=O)N[C@H]1[C@@H](C(=O)Nc2ccc(F)c(C(F)(F)F)c2)[C@H]2CC[C@@H]1/C2=C\C1CC1 (single isomer, unassigned) [Example 342] |
| 56 | COc1ccc(CCc2ccc(OC)c(C(=O)NC3C4CCC(/C4=C/C(F)(F)F)[C@@H]3C(=O)Nc3ccc(F)c(C(F)(F)F)c3)c2)cc1 (some centres unmarked) [Example 188, (7Z)-N-[4-fluoro-3-(trifluoromethyl)phe-nyl]-3-{2-methoxy-5-[2-(4-methoxyphenyl)ethyl]benzamido}-7-(2,2,2-trifluoroethylidene)bi-cyclo[2.2.1]heptane-2-carboxamide] |
| 51 | COc1ccc(CCC(C)(C)O)cc1C(=O)NC1C2CCC(/C2=C/C2CC(F)(F)C2)[C@@H]1C(=O)Nc1ccc(F)c(C(F)(F)F)c1 (stereo partly drawn) [Example 160, (2S,3R,7Z)-7-[(3,3-difluorocyclobutyl)methylidene]-N-[4-fluoro-3-(trifluoromethyl)phe-nyl]-3-[5-(3-hydroxy-3-methylbutyl)-2-methoxybenzamido] bicyclo[2.2.1]heptane-2-carboxamide] |

The remaining lines, values behind:

| Compound | EC50 [nM] |
| --- | --- |
| COc1ccc(C#CCCCOC(=O)NC2CCC2)cc1C(=O)N[C@@H]1C2CCC(/C2=C/C(F)(F)F)[C@@H]1C(=O)Nc1ccc(F)c(C(F)(F)F)c1 (stereo partly drawn) [Example 80, 5-(3-{[(2R,3S,7Z)-3-{[4-fluoro-3-(trifluoromethyl)phe-nyl]carbamoyl}-7-(2,2,2-trifluoroethylidene)bi-cyclo[2.2.1]heptan-2-yl]carbamoyl}-4-methoxyphenyl)pent-4-yn-1-yl N-cyclobutylcarbamate] | 303 |
| (1R,4R,7Z)-7-(2- cyclobutylethylidene)- N-[4-fluoro-3- (trifluoromethyl) phenyl]-3-[5-(3- hydroxy-3- methylbutyl)-2- methoxybenzamido] bicyclo[2.2.1]heptane- 2-carboxamide [Example 262] | 197 |
| COc1ccc(CCC(C)(C)O)cc1C(=O)NC1C2CCC(/C2=C/CC(F)F)[C@@H]1C(=O)Nc1ccc(F)c(C(F)(F)F)c1 (some centres unmarked) [Example 175, (7Z)-7-(3,3-difluoropropylidene)-N-[4-fluoro-3-(trifluoromethyl)phe-nyl]-3-[5-(3-hydroxy-3-methylbutyl)-2-methoxybenzamido] bicyclo[2.2.1]heptane-2-carboxamide] | 311 |
| COc1ccc(C2=CC(=O)CCC2)cc1C(=O)N[C@@H]1C2CCC(/C2=C/C(F)(F)F)[C@@H]1C(=O)Nc1ccc(F)c(C(F)(F)F)c1 (some centres unmarked) [Example 34] | 470 |
| COc1ccc(CCCNC[C@@H](O)C(F)(F)F)cc1C(=O)N[C@@H]1C2CCC(/C2=C/C(F)(F)F)[C@@H]1C(=O)Nc1ccc(F)c(C(F)(F)F)c1 (stereo partly drawn) [Example 119, (2S,3R,7Z)-N-[4-fluoro-3-(trifluoromethyl)phe-nyl]-3-[2-methoxy-5-(3-{[(2R)-3,3,3-trifluoro-2-hydroxypropyl]amino}propyl)benzamido]-7-(2,2,2-trifluoroethylidene)bi-cyclo[2.2.1]heptane-2-carboxamide] | 1800 |
| COc1ccc(CCC(C)(C)O)cc1C(=O)N[C@H]1[C@@H](C(=O)NCC(C)(C)C)[C@H]2CC[C@@H]1/C2=C\C1CC1 [Example 271, (1R,2S,3R,4R,7Z)-7-(cyclopropylmethyl-idene)-N-(2,2-dimethylpropyl)-3-[5-(3-hydroxy-3-methylbutyl)-2-methoxybenzamido] bicyclo[2.2.1]heptane-2-carboxamide] | 264 |
| COc1ccc(COCC2CC3(C2)OCCO3)cc1C(=O)N[C@H]1[C@@H](C(=O)Nc2ccc(F)c(C(F)(F)F)c2)[C@H]2CC[C@@H]1/C2=C\C1CC1 [Example 286] | 121 |
